Test results published in patent US10071975B2, “Macrocyclic amidinourea derivatives, methods of preparation and uses thereof as chitinase inhibitors” (CYGNET BIOSCIENCES B.V., priority 2013, dated 2018).
In brackets after ≈: the same amount, converted by molar mass.

Key:
[1] = molecular target: chitinase enzyme extracted from Trichoderma viride; experiment: Chitinase inhibition assay (NP-GlcNAc substrate); format: biochemical
Description: Chitinase inhibition assays were conducted against an example of the GH18 family of chitinases, i.e the chitinase enzyme extracted from Trichoderma viride. This enzyme has an high degree of identity compared to chitinase 4 of Candida albicans, and is commercially available from Sigma-Aldrich (catalogue ID: C8241).
The substrate used was the NP-GlcNAc (Sigma-Aldrich, catalogue ID: N9376) dissolved in MES 50 mM at pH6.0; the final concentration was 250 μM. The enzyme was resuspended at 0.11 mg/ml in MES 50 mM at pH 6.0, with a final concentration for the assay of 73 nM diluting with MES 50 mM and BSA 20 μg/ml at pH 6.0. A stock solution of the inhibitors was prepared at 50 mM in DMSO 100%.
The mixture with the inhibitor at various concentrations and the enzyme was prepared directly into the reading plate and left to incubate at room temperature for 20 minutes or three hours. At the end of the incubation times, the substrate was added and the reading was conducted by recording the values up to a maximum time of 10 minutes. The substrate concentration was measured by reading UV absorption at 300 nm (εM^300: 11100), while, the product of hydrolysis were measured at 400 nm (ΔεM^400: 2120). Both IC50 and Ki can be calculated.

[2] = system: C. albicans; experiment: Antimicrobial susceptibility testing (microdilution MIC90), C. albicans strains; format: cell-based; conditions: Candida albicans; C. albicans (22 strains tested); 24 h, visually and spectrophotometrically
Description: (§1) Sterile plastic microtitration plates containing flat-bottomed wells were used. The plates contained serial dilution of the antifungal agents with a volume of assay medium of 100 μL/well. Two drug-free medium wells were used as sterility and growth controls. The trays were inoculated with 100 μL/well of the final inoculum, with the exception of sterility control wells. […] The microtitration plates were incubated at 37° C. for 24 h. The minimal inhibitory concentrations (MICs) were determined at 24 h both visually and spectrophotometrically measuring the turbidity at 595 nm with a Varian model 1475 spectrophotometer. Results of biological tests are shown in Table 2, biological data are reported as MIC90 that is the minimum concentration required to inhibit the growth of at least the 90% of the strains tested for each species.

[3] = system: C. glabrata fluconazole resistant strains; experiment: microbe, parasite or virus in culture; format: cell-based, Candida glabrata; conditions: Nakaseomyces glabratus, 24 h
[4] = system: C. albicans fluconazole resistant strains; experiment: microbe, parasite or virus in culture; format: cell-based; conditions: Candida albicans, 24 h
[5] = system: C. kefyr; experiment: Antimicrobial susceptibility testing (microdilution MIC90), C. kefyr strains; format: cell-based, Candida kefyr; conditions: Kluyveromyces marxianus; C. kefyr (10 strains tested); 24 h
Description: as §1

[6] = system: C. tropicalis; experiment: Antimicrobial susceptibility testing (microdilution MIC90), C. tropicalis strains; format: cell-based; conditions: Candida tropicalis; C. tropicalis (11 strains tested); 24 h
Description: as §1

[7] = system: C. krusei; experiment: Antimicrobial susceptibility testing (microdilution MIC90), C. krusei strains; format: cell-based, Candida krusei; conditions: Pichia kudriavzevii; C. krusei (13 strains tested); 24 h; read-out: MIC90
Description: as §1

[8] = system: C. guilliermondii; experiment: Antimicrobial susceptibility testing (microdilution MIC90), C. guilliermondii strains; format: cell-based, Candida guilliermondii; conditions: Meyerozyma guilliermondii; C. guilliermondii (10 strains tested); 24 h
Description: as §1

[9] = system: C. parapsilosis; experiment: Antimicrobial susceptibility testing (microdilution MIC90), C. parapsilosis strains; format: cell-based, Candida parapsilosis; conditions: Lodderomyces parapsilosis; C. parapsilosis (24 strains tested); 24 h
Description: as §1

[10] = system: C. glabrata; experiment: Antimicrobial susceptibility testing (microdilution MIC90), C. glabrata strains; format: cell-based, Candida glabrata; conditions: Nakaseomyces glabratus; C. glabrata (26 strains tested); 24 h
Description: as §1

[11] = Enz.-inhib. incubation time 20 min
[12] = Enz.-inhib. incubation time 3 h
[13] = strain DSY284, ERG11 Mutation, mean of three measurements
[14] = strain DSY289, ERG11 Mutation (2)
[15] = strain DSY291, ERG11 Mutation (2)
[16] = strain DSY292, ERG11 Mutation (3)
[17] = strain DSY751, ↑MDR1, ERG11 Mutation

| Compound | IC50 [1, 11] | Ki [1, 11] | IC50 [1, 12] | Ki [1, 12] | MIC90 [2] | MIC90 [5] | MIC90 [6] | MIC90 [7] | MIC90 [8] | MIC90 [9] | MIC90 [10] | other results |
| --- | --- | --- | --- | --- | --- | --- | --- | --- | --- | --- | --- | --- |
| N=C(NCCCCCCCCN1CCCCCCCCNC(=N)NC1=O)NCC1CC1 [Compound 34, 1-(cyclopropylmethyl)-3-[8-(4-imino-2-oxo-1,3,5-triazacyclotridec-1-yl)octyl]guanidine] | 252 µM | 81.4 µM | 130 µM | 42 µM | – | – | – | – | – | – | – | – |
| C/C=C/CNC(=N)NCCCCCCCCN1CCCCCCCCNC(=N)NC1=O [Compound 35, 1-[(E)-but-2-enyl]-3-[8-(4-imino-2-oxo-1,3,5-triazacyclotridec-1-yl)octyl]guanidine] | 185 µM | 59.6 µM | 157 µM | 50.8 µM | – | – | – | – | – | – | – | – |
| C/C=C/CNC(=N)NCCCCCCN1CCCCCCCCNC(=N)NC1=O [Compound 36, 1-[(E)-but-2-enyl]-3-[6-(4-imino-2-oxo-1,3,5-triazacyclotridec-1-yl)hexyl]guanidine] | – | – | 111 µM | 35.8 µM | – | – | – | – | – | – | – | – |
| C/C=C/CNC(=N)NCCCCCCCCN1CCCCOc2ccccc2CNC(=N)NC1=O [Example 16, 1-[(E)-but-2-enyl]-3-[8-(4-imino-6-oxo-12-oxa-3,5,7-triazabicyclo[11.4.0]heptadeca-1(13),14,16-trien-7-yl)octyl]guanidine] | – | – | – | – | 16 µg/mL (≈ 32.9 µM) | 4 µg/mL (≈ 8.24 µM) | 8 µg/mL (≈ 16.5 µM) | 32 µg/mL (≈ 65.9 µM) | 16 µg/mL (≈ 32.9 µM) | 8 µg/mL (≈ 16.5 µM) | 64 µg/mL (≈ 132 µM) | MIC ([3]; strain DSY530, ↑CDR1): 64 µg/mL (≈ 132 µM); MIC ([3]; strain DSY754, ↑CDR1): 64 µg/mL (≈ 132 µM); MIC ([3]; strain DSY756, ↑CDR1-CDR2-SNQ2): 64 µg/mL (≈ 132 µM); MIC ([3]; strain DSY2254, ↑CDR1-CDR2): 64 µg/mL (≈ 132 µM); MIC ([3]; strain DSY2271, ↑CDR2): 64 µg/mL (≈ 132 µM); MIC [4, 13]: 16 µg/mL (≈ 32.9 µM); MIC [4, 14]: 8 µg/mL (≈ 16.5 µM); MIC [4, 15]: 8 µg/mL (≈ 16.5 µM); MIC [4, 16]: 16 µg/mL (≈ 32.9 µM); MIC ([4]; strain DSY296, ERG11 Mutation): 16 µg/mL (≈ 32.9 µM); MIC ([4]; strain DSY348, ERG11 Mutation): 8 µg/mL (≈ 16.5 µM); MIC ([4]; strain DSY732, ↑CDR1-CDR2): 8 µg/mL (≈ 16.5 µM); MIC ([4]; strain DSY735, ↑CDR1-CDR2): 8 µg/mL (≈ 16.5 µM); MIC ([4]; strain DSY750, ↑MDR1): 16 µg/mL (≈ 32.9 µM); MIC [4, 17]: 16 µg/mL (≈ 32.9 µM); MIC ([4]; strain DSY775, ERG11 Mutation): 16 µg/mL (≈ 32.9 µM); MIC ([4]; strain DSY2323, ↑CDR2-MDR1): 8 µg/mL (≈ 16.5 µM) |
| C[C@@H](c1ncncc1F)[C@](O)(Cn1cncn1)c1ccc(F)cc1F [VOR, Voriconazole, reference compound] | – | – | – | – | – | – | – | – | – | – | – | MIC ([3]; strain DSY530, ↑CDR1): 0.5 µg/mL (≈ 1.43 µM); MIC ([3]; strain DSY754, ↑CDR1): 2 µg/mL (≈ 5.73 µM); MIC ([3]; strain DSY756, ↑CDR1-CDR2-SNQ2): 4 µg/mL (≈ 11.5 µM); MIC ([3]; strain DSY2254, ↑CDR1-CDR2): 2 µg/mL (≈ 5.73 µM); MIC [4, 13]: 4 µg/mL (≈ 11.5 µM); MIC [4, 14]: 8 µg/mL (≈ 22.9 µM); MIC [4, 15]: 0.03 µg/mL (≈ 0.0859 µM); MIC [4, 16]: 2 µg/mL (≈ 5.73 µM); MIC ([4]; strain DSY296, ERG11 Mutation): 8 µg/mL (≈ 22.9 µM); MIC ([4]; strain DSY348, ERG11 Mutation): 0.25 µg/mL (≈ 0.716 µM); MIC ([4]; strain DSY732, ↑CDR1-CDR2): 0.25 µg/mL (≈ 0.716 µM); MIC ([4]; strain DSY735, ↑CDR1-CDR2): 2 µg/mL (≈ 5.73 µM); MIC ([4]; strain DSY750, ↑MDR1): 0.016 µg/mL (≈ 0.0458 µM); MIC [4, 17]: 0.25 µg/mL (≈ 0.716 µM); MIC ([4]; strain DSY775, ERG11 Mutation): 8 µg/mL (≈ 22.9 µM); MIC ([4]; strain DSY2323, ↑CDR2-MDR1): 0.25 µg/mL (≈ 0.716 µM) |

Second part, led by results:

| IC50 [1, 11] | Ki [1, 11] | IC50 [1, 12] | Ki [1, 12] | MIC90 [2] | MIC90 [5] | MIC90 [6] | MIC90 [7] | MIC90 [8] | MIC90 [9] | MIC90 [10] | Compound | other results |
| --- | --- | --- | --- | --- | --- | --- | --- | --- | --- | --- | --- | --- |
| 276 µM | 81.4 µM | 108 µM | 34.8 µM | – | – | – | – | – | – | – | C=C(C)CNC(=N)NCCCCCCN1CCCCCCCCNC(=N)NC1=O [Compound 37, 1-[6-(4-imino-2-oxo-1,3,5-triazacyclotridec-1-yl)hexyl]-3-(2-methylprop-2-enyl)guanidine] | – |
| 508 µM | 164 µM | 140 µM | 45.3 µM | – | – | – | – | – | – | – | CCNC(=N)NCCCCCCN1CCCCCCCCNC(=N)NC1=O [Compound 38, 1-ethyl-3-[6-(4-imino-2-oxo-1,3,5-triazacyclotridec-1-yl)hexyl]guanidine] | – |
| 170 µM | 55 µM | 97 µM | 31.3 µM | – | – | – | – | – | – | – | C#CCNC(=N)NCCCCCCN1CCCCCCCCNC(=N)NC1=O [Compound 39, 1-[6-(4-imino-2-oxo-1,3,5-triazacyclotridec-1-yl)hexyl]-3-prop-2-ynylguanidine] | – |
| – | – | – | – | 16 µg/mL (≈ 33.4 µM) | 16 µg/mL (≈ 33.4 µM) | 16 µg/mL (≈ 33.4 µM) | 32 µg/mL (≈ 66.7 µM) | 8 µg/mL (≈ 16.7 µM) | 8 µg/mL (≈ 16.7 µM) | 32 µg/mL (≈ 66.7 µM) | C/C=C/CNC(=N)NCCCCCCCCN1CCCCCCOC(=O)CCNC(=N)NC1=O [Example 20, 1-[(E)-but-2-enyl]-3-[8-(6-imino-2,8-dioxo-1-oxa-5,7,9-triazacyclopentadec-9-yl)octyl]guanidine] | – |
| – | – | – | – | 32 µg/mL (≈ 48.7 µM) | 64 µg/mL (≈ 97.4 µM) | 64 µg/mL (≈ 97.4 µM) | 128 µg/mL (≈ 195 µM) | 32 µg/mL (≈ 48.7 µM) | 32 µg/mL (≈ 48.7 µM) | 64 µg/mL (≈ 97.4 µM) | C/C=C/CNC(=N)NCCCCCCCCN1CCCCCCOc2ccccc2C(c2cn(-c3ccccc3)nn2)NC(=N)NC1=O (stereo not drawn) [Example 21] | – |
| – | – | – | – | 64 µg/mL (≈ 114 µM) | 128 µg/mL (≈ 228 µM) | 128 µg/mL (≈ 228 µM) | 256 µg/mL (≈ 456 µM) | 64 µg/mL (≈ 114 µM) | 64 µg/mL (≈ 114 µM) | 128 µg/mL (≈ 228 µM) | C/C=C/CNC(=N)NCCCCCCCCN1CCCc2ccccc2COc2ccccc2CNC(=N)NC1=O [Example 22, 1-[(2E)-but-2-en-1-yl]-3-(8-{16-imino-14-oxo-2-oxa-13,15,17-triazatricyclo[17.4.0.0^4,9]tricosa-1(19),4(9),5,7,20,22-hexaen-13-yl}octyl)guanidine] | – |
| – | – | – | – | 256 µg/mL (≈ 456 µM) | 256 µg/mL (≈ 456 µM) | 256 µg/mL (≈ 456 µM) | 256 µg/mL (≈ 456 µM) | 256 µg/mL (≈ 456 µM) | 256 µg/mL (≈ 456 µM) | 128 µg/mL (≈ 228 µM) | C/C=C/CNC(=N)NCCCCCCCCN1CCCc2cccc(c2)COc2ccccc2CNC(=N)NC1=O [Example 23, 1-[(2E)-but-2-en-1-yl]-3-(8-{12-imino-14-oxo-3-oxa-11,13,15-triazatricyclo[17.3.1.0^4,9]tricosa-1(23),4(9),5,7,19,21-hexaen-15-yl}octyl)guanidine] | – |
